Reference: the supplement of paper PMC4380931

Assays:
Experiment in all cases: relative viability (cell count relative to DMSO-treated control) (fraction of DMSO control); higher = more viable cells / less drug effect
MMACSF = system: MMACSF
Procedure: (§1)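 BRAF V600E/D melanoma cell lines were seeded in 96-well plates, treated in 4 replicates with seven doses (3.16 nM to 3.16 uM) of RAF/MEK inhibitors for 24, 48 or 72 h, and stained with Hoechst 33342 (nuclei) and DEVD-NucView488 caspase-3 substrate. Plates were imaged on an Operetta. Relative viability is the cell count normalised to a DMSO-treated control; apoptosis fraction is the fraction of NucView488-positive nuclei.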

RVH421 = system: RVH421
Procedure: as §1

COLO858 = system: COLO858
Procedure: as §1

SKMEL28 = system: SKMEL28
Procedure: as §1

WM115 = system: WM115
Procedure: as §1

WM1552C = system: WM1552C
Procedure: as §1

CN(C)CCOc1ccc(-c2nc(-c3ccncc3)c(-c3ccc4c(c3)CC/C4=N\O)[nH]2)cc1
relative viability
Conditions	0.00316 µM	0.01 µM	0.0316 µM	0.1 µM	0.316 µM	1 µM	3.16 µM
COLO858, 24 h	0.866	1.21	1.2	1	0.946	0.883	0.811
COLO858, 48 h	0.963	1.03	0.929	0.584	0.431	0.341	0.277
COLO858, 72 h	1.07	1.21	0.906	0.605	0.494	0.381	0.29
MMACSF, 24 h	1.03	0.999	0.9993	1.03	0.964	0.977	1.02
MMACSF, 48 h	0.955	1.01	0.925	0.787	0.791	0.727	0.684
MMACSF, 72 h	0.953	0.952	0.779	0.6	0.529	0.423	0.341
RVH421, 24 h	0.994	0.9379	1.04	1.034	1.01	1.02	0.929
RVH421, 48 h	1.07	0.849	0.803	0.689	0.672	0.638	0.513
RVH421, 72 h	0.983	0.995	0.872	0.702	0.641	0.575	0.542
SKMEL28, 48 h	0.835	1.45	1.59	1.29	1.1	0.906	0.643
SKMEL28, 72 h	1.08	0.92	0.897	0.734	0.542	0.544	0.373
WM115, 24 h	1.06	1.33	1.36	1.4	1.35	1.15	1.28
WM115, 48 h	1.31	1.47	1.54	1.44	1.42	0.972	0.683
WM115, 72 h	1.03	1.02	0.889	0.773	0.683	0.584	0.573
WM1552C, 24 h	0.999	1.036	0.986	1.08	1.03	1.088	1.05
WM1552C, 48 h	1.01	1.01	0.994	0.994	0.954	0.87	0.82
WM1552C, 72 h	1.03	1.16	1.15	1.03	0.899	0.699	0.616

Cc1ccc(NC(=O)c2cccc(C(C)(C)C#N)c2)cc1Nc1ccc2ncn(C)c(=O)c2c1 [AZ628]
relative viability
Conditions	0.00316 µM	0.01 µM	0.0316 µM	0.1 µM	0.316 µM	1 µM	3.16 µM
COLO858, 24 h	0.923	1.12	1.16	0.982	0.938	0.902	0.816
COLO858, 48 h	0.965	1.08	0.778	0.48	0.368	0.319	0.248
COLO858, 72 h	1.05	1.13	0.716	0.475	0.392	0.307	0.213
MMACSF, 24 h	1.059	0.978	1	0.982	0.988	1	1.034
MMACSF, 48 h	0.938	1.02	0.913	0.771	0.737	0.56	0.517
MMACSF, 72 h	0.917	0.833	0.641	0.519	0.367	0.223	0.141
RVH421, 24 h	0.929	0.9636	1.05	1.06	1.02	0.993	0.908
RVH421, 48 h	1.06	0.944	0.81	0.666	0.696	0.65	0.544
RVH421, 72 h	0.956	0.915	0.741	0.58	0.537	0.47	0.412
SKMEL28, 48 h	0.879	1.4	1.44	1.16	0.947	0.896	0.614
SKMEL28, 72 h	1.13	1.01	0.791	0.526	0.507	0.489	0.442
WM115, 24 h	1.19	1.47	1.51	1.53	1.37	0.87	0.946
WM115, 48 h	1.06	1.19	1.47	1.31	1.11	0.658	0.424
WM115, 72 h	1.03	1.04	0.801	0.594	0.281	0.172	0.0874
WM1552C, 24 h	0.959	0.982	0.99	1.01	0.974	0.996	0.928
WM1552C, 48 h	1.01	1	0.964	0.772	0.665	0.647	0.644
WM1552C, 72 h	1.03	1.11	0.948	0.736	0.555	0.484	0.442
